The record followed here is patent US20220153732A1, “PROTEIN SECRETION INHIBITORS” (KEZAR LIFE SCIENCES, priority 2019, published 2022).

Holding throughout (assay type): cell-based
Experiment [1] has as its system PD1-ss+10aa/Gaussia Luciferase. Kind of experiment: Dox-Induced PD1-ss-Gluc Assay. In short, it runs like this: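 Stable cell line carrying PD1-ss+10aa/Gaussia luciferase cDNA under T-REx (doxycycline-inducible) control, plated the day before assay. Compound dilutions in DMSO/media containing doxycycline added and incubated at 37° C, 5% CO2. Undefined stereocentres: data refer to stereoisomer mixtures.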

In experiment [2] the test system is TNFα-FL/Gaussia Luciferase. Description: Dox Induced TNFα-FL-Gluc Assay. In short, it runs like this:
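A stable T-REx cell line carrying doxycycline-inducible TNFα-FL/Gaussia luciferase was plated the day before assay. Compound dilutions in DMSO/media containing doxycycline were then added and incubated at 37° C, 5% CO2.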

Experiment [3] concerns HER3-ss+4aa/Gaussia Luciferase. Kind of experiment: Dox-Induced Her3-ss-Gluc Assay. In short, it runs like this: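 Stable T-REx cell line carrying a doxycycline-regulated HER3-ss+4aa/Gaussia luciferase insert, plated the day before assay. Compound dilutions in DMSO/media with doxycycline added, then incubated at 37° C., 5% CO2. Stereoisomer mixtures tested where stereochemistry is not drawn.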

The test system of experiment [4] is IL-2-FL/Gaussia Luciferase. Kind of experiment: Dox Induced IL2-FL-Gluc Assay. In short, it runs like this:
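Stable T-REx cell line expressing doxycycline-inducible IL-2-FL/Gaussia luciferase cDNA, plated the day before assay. Compound dilutions in DMSO/media containing doxycycline added and incubated at 37° C., 5% CO2. Unspecified stereochemistry means data refer to a stereoisomer mixture.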

Experiment [5] deals with human multiple myeloma cell line NCI-H929. Description: H929 Cell Viability Assay. As to conditions: 48 hr, NCI-H929 cells, Celltiter-Glo, read-out: 48 hr H929 Viability Celltiter-Glo: Mean EC50. As to the method: Plates were incubated at 37° C., 5% CO2 for 48 hours. After 48 hours, Celltiter-Glo® (Promega) was added to each well and luciferase signal was quantified using Tecan Infinite M1000 Pro for cell viability determination.
For chemical structures that include one or more stereoisomers, but are illustrated without indicating stereochemistry, the assay data refers to a mixture of stereoisomers.

The test system of experiment [6] is human multiple myeloma cell line U266B1. Description: U266 Cell Viability Assay. The settings on record: U-266, 48 hr, U266B1 cells, Celltiter-Glo, read-out: 48 hr U266 Viability Celltiter-Glo: Mean EC50. An outline of the steps:
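U266B1 myeloma cells treated with compound dilutions in DMSO/media for 48 h at 37 °C, 5% CO2. Viability read by CellTiter-Glo luminescence. Stereochemically undefined structures were tested as stereoisomer mixtures.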

Where [7] appears, read: 24 hr, doxycycline-induced, 293FRT/TO cells; read-out: 24 hr Dox Inducible PD1ssGluc 293FRT/TO: Mean IC50.
The mark [8] stands for this setting: 24 hr, doxycycline-induced, 293FRT/TO cells; read-out: 24 hr Dox Inducible TNFaFLGluc 293FRT/TO: Mean IC50.
Setting [9] is: 24 hr, doxycycline-induced, 293FRT/TO cells; read-out: 24 hr Dox Inducible Her3(ss + 4)Gluc 293FRT/TO: Mean IC50.
[10] abbreviates: 24 hr, doxycycline-induced, 293FRT/TO cells; read-out: 24 hr Dox Inducible IL2FLGIuc 293FRT/TO: Mean IC50.
The mark [11] stands for this setting: 24 hr doxycycline induction, 293FRT/TO cells, Gaussia luciferase signal; read-out: 24 hr Dox Inducible PD1ssGluc 293FRT/TO: Mean IC50.
[12] abbreviates: 24 hr doxycycline induction, 293FRT/TO cells, Gaussia luciferase signal; read-out: 24 hr Dox Inducible TNFaFLGluc 293FRT/TO: Mean IC50.
[13] abbreviates: 24 hr doxycycline induction, 293FRT/TO cells, Gaussia luciferase signal; read-out: 24 hr Dox Inducible Her3(ss + 4)Gluc 293FRT/TO: Mean IC50.
Setting [14] is: 24 hr doxycycline induction, 293FRT/TO cells, Gaussia luciferase signal; read-out: 24 hr Dox Inducible IL2FLGIuc 293FRT/TO: Mean IC50.

Read-outs that look alike come from different tables or passages of the source. Where only a bound is given, the exact number is not on record here.

Broadly, the EC50 is the concentration giving half of the maximal effect. Turning to `O=C(Nc1nc(C2COc3ccccc3C2)cs1)c1cccn1Cc1ccncc1` (stereo not drawn) [Compound A296], the IC50 in experiment [1] (setting [7]) was determined as 0.655 µM; in experiment [2] (setting [8]) it was 10.3 µM; in experiment [3] (setting [9]) it was 1.21 µM; in experiment [4] (setting [10]), 1.15 µM. The EC50 in experiment [5] and in experiment [6] was over 25 µM in each case.

Take `CCc1nc(NC(=O)c2cccn2Cc2ccncc2Cl)sc1C` [Compound A66, 1-((3-chloropyridin-4-yl)methyl)-N-(4-ethyl-5-methylthiazol-2-yl)-1H-pyrrole-2-carboxamide]: the IC50 was 1.84 µM in experiment [1] (setting [11]), over 25 µM in experiment [2] (setting [12]), 4.15 µM in experiment [3] (setting [13]) and 4.78 µM in experiment [4] (setting [14]). For the same compound, the 50% effective concentration (EC50) in experiment [5] and in experiment [6] was over 25 µM throughout.

Regarding `CN(C)Cc1csc(NC(=O)c2cccn2Cc2ccncc2)n1` [Compound B19], the IC50 in experiment [1] (setting [7]), in experiment [2] (setting [8]), in experiment [3] (setting [9]) and in experiment [4] (setting [10]) was over 25 µM in each case. For the same compound, the EC50 in experiment [5] and in experiment [6] was over 25 µM throughout.

In the case of `Cc1cccnc1/C=C/c1csc(NC(=O)c2cccn2Cc2ccncc2)n1` [Compound A347], the IC50 in experiment [1] (setting [7]) amounted to 0.042 µM; in experiment [2] (setting [8]) it was 13.1 µM; in experiment [3] (setting [9]) it was 6.01 µM; in experiment [4] (setting [10]), 9.58 µM. In addition, the EC50 is 23.8 µM in experiment [5] and 20.3 µM in experiment [6].

With `O=C(Nc1nc(N2CCC(c3ccccc3)CC2)cs1)c1cccn1Cc1ccncc1` [Compound A261], the IC50 in experiment [1] (setting [11]) was 2.25 µM; in experiment [2] (setting [12]), over 25 µM; in experiment [3] (setting [13]), 2.02 µM; in experiment [4] (setting [14]), over 25 µM. Further, the EC50 in experiment [5] and in experiment [6] was over 25 µM in each case.

In the case of `O=C(Nc1nc(C(F)(F)F)cs1)c1cccn1Cc1ccncc1` [Compound A19, 1-(pyridin-4-ylmethyl)-N-(4-(trifluoromethyl)thiazol-2-yl)-1H-pyrrole-2-carboxamide], the IC50 was 0.246 µM in experiment [1] (setting [11]), 8.54 µM in experiment [2] (setting [12]), 0.492 µM in experiment [3] (setting [13]) and 0.529 µM in experiment [4] (setting [14]). Moreover, the EC50 in experiment [5] and in experiment [6] was over 25 µM each time.

On to `CC(C)OC(C)(C)c1csc(NC(=O)c2cccn2CCCc2ccccc2Cl)n1` [Compound A68, 1-(3-(2-chlorophenyl)propyl)-N-(4-(2-isopropoxypropan-2-yl)thiazol-2-yl)-1H-pyrrole-2-carboxamide], for which the IC50 in experiment [1] (setting [11]) is 2.07 µM; in experiment [2] (setting [12]), over 25 µM; in experiment [3] (setting [13]), 2.73 µM; in experiment [4] (setting [14]) it was 2.76 µM. Further, the EC50 in experiment [5] and in experiment [6] was over 25 µM in each case.

On to `O=C(Nc1nc(/C=C/c2ccc(C(F)(F)F)cc2)cs1)c1cccn1Cc1ccncc1` [Compound A219, 1-(pyridin-4-ylmethyl)-N-(4-(4-(trifluoromethyl)styryl)thiazol-2-yl)-1H-pyrrole-2-carboxamide], for which the IC50 in experiment [1] (setting [11]) was determined as 0.048 µM; in experiment [2] (setting [12]) it was 0.946 µM; in experiment [3] (setting [13]), 0.234 µM; in experiment [4] (setting [14]) it was 0.443 µM. Moreover, the EC50 was 8.6 µM in experiment [5] and 13.7 µM in experiment [6].

Regarding `O=C(Nc1nc(/C=C/c2ccoc2)cs1)c1cccn1CCCc1ccncc1` [Compound A232, N-(4-(2-(furan-3-yl)vinyl)thiazol-2-yl)-1-(3-(pyridin-4-yl)propyl)-1H-pyrrole-2-carboxamide], the IC50 in experiment [1] (setting [11]) worked out at 2.99 µM; in experiment [2] (setting [12]) it was 21.5 µM; in experiment [3] (setting [13]), 14.9 µM; in experiment [4] (setting [14]) it was 8.6 µM. In addition, the figures for the EC50 in experiment [5] and in experiment [6] were 13.4 µM and 19.7 µM, respectively.

With `CCc1nc(NC(=O)c2cccn2Cc2ccccc2)sc1C` [Compound B9, 1-benzyl-N-(4-ethyl-5-methylthiazol-2-yl)-1H-pyrrole-2-carboxamide], the IC50 in experiment [1] (setting [7]) was 9.43 µM; in experiment [2] (setting [8]) it was over 25 µM; in experiment [3] (setting [9]), over 25 µM; in experiment [4] (setting [10]), over 25 µM. Besides, the EC50 in experiment [5] and in experiment [6] was over 25 µM throughout.

On to `CC(C)OC(C)(C)c1csc(NC(=O)c2ccn(Cc3ccncc3)c2)n1` [Compound A122, N-(4-(2-isopropoxypropan-2-yl)thiazol-2-yl)-1-(pyridin-4-ylmethyl)-1H-pyrrole-3-carboxamide], for which the IC50 in experiment [1] (setting [11]), in experiment [2] (setting [12]), in experiment [3] (setting [13]) and in experiment [4] (setting [14]) was over 25 µM each time. For the same compound, the 50% effective concentration (EC50) in experiment [5] and in experiment [6] was over 25 µM in each case.

With `CC(C)(C)[Si](O[C@@H]1CCN(c2ccccc2)[C@@H]1c1csc(NC(=O)c2cccn2Cc2ccncc2)n1)(c1ccccc1)c1ccccc1` [Compound A352], the IC50 in experiment [1] (read-out: 24 hr Dox Inducible PD1ssGluc 293FRT/TO: Mean IC50; 24 hr, doxycycline-induced, 293FRT/TO cells) was found to be 0.008 µM; in experiment [2] (read-out: 24 hr Dox Inducible TNFaFLGluc 293FRT/TO: Mean IC50; 24 hr, doxycycline-induced, 293FRT/TO cells), 0.062 µM; in experiment [3] (read-out: 24 hr Dox Inducible Her3(ss + 4)Gluc 293FRT/TO: Mean IC50; 24 hr, doxycycline-induced, 293FRT/TO cells), 0.019 µM; in experiment [4] (read-out: 24 hr Dox Inducible IL2FLGIuc 293FRT/TO: Mean IC50; 24 hr, doxycycline-induced, 293FRT/TO cells), 0.016 µM. Further, the results for the concentration giving a half-maximal response (EC50) in experiment [5] and in experiment [6] were 0.452 µM and over 25 µM, respectively.

For `O=C(Nc1nc([C@H]2C[C@H](O)CN2c2ccccc2)cs1)c1cccn1Cc1ccncc1` [Compound A326], the IC50 in experiment [1] (setting [7]) amounted to 0.059 µM; in experiment [2] (setting [8]) it was 0.308 µM; in experiment [3] (setting [9]), 0.201 µM; in experiment [4] (setting [10]), 0.126 µM. In addition, the EC50 in experiment [5] was 5 µM; in experiment [6] it was over 25 µM.

For `CC(C)OC(C)(C)c1csc(NC(=O)c2cccn2Cc2ccc(S(C)(=O)=O)cc2)n1` [Compound A84, N-(4-(2-isopropoxypropan-2-yl)thiazol-2-yl)-1-(4-(methylsulfonyl)benzyl)-1H-pyrrole-2-carboxamide], the IC50 in experiment [1] (setting [11]) was 6.34 µM; in experiment [2] (setting [12]), over 25 µM; in experiment [3] (setting [13]), over 25 µM; in experiment [4] (setting [14]) it was 5.82 µM. For the same compound, the concentration giving a half-maximal response (EC50) in experiment [5] and in experiment [6] was over 25 µM throughout.

With `COc1cc(Cn2cccc2C(=O)Nc2nc(C(C)(C)OC(C)C)cs2)cc(F)n1` [Compound A70, 1-((2-fluoro-6-methoxypyridin-4-yl)methyl)-N-(4-(2-isopropoxypropan-2-yl)thiazol-2-yl)-1H-pyrrole-2-carboxamide], the IC50 was 2.23 µM in experiment [1] (setting [11]), over 25 µM in experiment [2] (setting [12]), 9.39 µM in experiment [3] (setting [13]) and 5.67 µM in experiment [4] (setting [14]). Also, the 50% effective concentration (EC50) in experiment [5] and in experiment [6] was over 25 µM each time.

For the compound `CN(C(=O)c1cccn1Cc1ccncc1)c1nccs1` [Compound B13], the IC50 in experiment [1] (setting [7]), in experiment [2] (setting [8]), in experiment [3] (setting [9]) and in experiment [4] (setting [10]) was over 25 µM throughout. The EC50 in experiment [5] and in experiment [6] was over 25 µM throughout.

With `O=C(Nc1nc(Cc2ccccc2)cs1)c1cccn1CCCc1ccncc1` [Compound A184, N-(4-benzylthiazol-2-yl)-1-(3-(pyridin-4-yl)propyl)-1H-pyrrole-2-carboxamide], the IC50 is 0.448 µM in experiment [1] (setting [11]), 2.41 µM in experiment [2] (setting [12]), 0.807 µM in experiment [3] (setting [13]) and 1.08 µM in experiment [4] (setting [14]). Besides, the values for the concentration giving a half-maximal response (EC50) in experiment [5] and in experiment [6] were 11.8 µM and 13.3 µM, respectively.

Take `CC(C)OC(C)(C)c1csc(NC(=O)c2cccn2CCc2ccncc2)n1` [Compound A91, N-(4-(2-isopropoxypropan-2-yl)thiazol-2-yl)-1-(2-(pyridin-4-yl)ethyl)-1H-pyrrole-2-carboxamide]: the IC50 was 11.9 µM in experiment [1] (setting [11]), over 25 µM in experiment [2] (setting [12]), over 25 µM in experiment [3] (setting [13]) and over 21.6 µM in experiment [4] (setting [14]). Moreover, the half-maximal effective concentration (EC50) in experiment [5] and in experiment [6] was over 25 µM each time.
